The structures appear in SMILES notation.

The target in this assay is T1, platelet 12-lipoxygenase (12-LO) (Homo sapiens, UniProt P18054).
T1 construct: endogenous in cells; host or cells: platelets isolated from platelet-rich plasma
T1 sequence (P18054 1-663): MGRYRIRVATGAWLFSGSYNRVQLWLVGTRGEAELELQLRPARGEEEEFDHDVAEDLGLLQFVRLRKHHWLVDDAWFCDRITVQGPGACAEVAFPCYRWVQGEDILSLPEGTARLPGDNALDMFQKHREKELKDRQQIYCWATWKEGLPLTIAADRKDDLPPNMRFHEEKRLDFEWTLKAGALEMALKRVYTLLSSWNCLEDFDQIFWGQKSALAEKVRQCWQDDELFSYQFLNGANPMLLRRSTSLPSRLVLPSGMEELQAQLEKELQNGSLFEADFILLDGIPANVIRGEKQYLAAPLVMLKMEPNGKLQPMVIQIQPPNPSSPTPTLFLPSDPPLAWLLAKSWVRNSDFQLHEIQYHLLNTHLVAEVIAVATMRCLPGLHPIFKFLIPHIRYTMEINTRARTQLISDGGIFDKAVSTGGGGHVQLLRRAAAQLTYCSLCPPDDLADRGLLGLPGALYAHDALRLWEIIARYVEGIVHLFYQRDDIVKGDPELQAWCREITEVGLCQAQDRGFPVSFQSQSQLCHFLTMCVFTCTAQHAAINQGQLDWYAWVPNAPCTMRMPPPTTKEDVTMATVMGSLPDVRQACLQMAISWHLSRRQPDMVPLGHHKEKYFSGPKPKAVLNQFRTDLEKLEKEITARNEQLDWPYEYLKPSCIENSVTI
The assay is described as follows: Platelet activation (A23187), biosynthesis of 12-HETE. The format is cell-based. Conditions: 10 μM A23187 5 min. How it is done:
Polymorphonuclear leukocytes (PMNL) were isolated as previously described. Briefly, whole blood was collected (with anticoagulant citrate dextrose (ACD)) and then centrifuged at 500 g for 10 min. Platelet-rich plasma (PRP) was set aside for platelet isolation (see below), and erythrocytes were removed by dextran sedimentation. After a centrifugation step at 900 g × 20 min at room temperature on a lymphocyte separation medium cushion (density, 1.077 g/ml) (Wisent), PMNL were obtained (>96%) followed by hypotonic lysis of the remaining erythrocytes. PMNL were counted and resuspended at 10^7 cells/ml in HBSS supplemented with 1.6 mM CaCl2. PRP was processed as previously described for platelet isolation. Briefly, PRP was centrifuged at 400 g for 2 min at room temperature to remove the remaining erythrocytes. The supernatant was then centrifuged at 1300g for 10 min to pellet platelets. Cells were resuspended in Tyrode Buffer pH 7.4 (134 mM NaCl, 2.9 mM KCl, 0.34 mM Na2HPO4, 12 mM NaHCO3, 20 mM HEPES, 1 mM MgCl2, 5 mM glucose, and 0.5 mg/ml BSA) at 3 × 10^8 cells/ml in the presence of 5 mM CaCl2.
Platelets (3 × 10^8 cells/ml) were preincubated with various test compounds at indicated concentrations for 5 min at 37°C. Platelet activation was initiated with the addition of 10 μM of calcium ionophore A23187 (Sigma-Aldrich) followed by a 5 min incubation time at 37°C. Reactions were stopped with the addition of two volumes of cold MeOH:MeCN (1 : 1) containing PGB2 (100 ng/ml) as internal standard. Samples were stored overnight at −20°C and were then centrifuged, the supernatant was dried under nitrogen, and the samples were resuspended in 30% methanol and analyzed by RP-HPLC as indicated above.
Figure 5 The inhibitory effects of the test compounds of the biosynthesis of 5-LO products in stimulated whole blood (a) and the biosynthesis of 12-lipoxygenase products in platelets (b). (a) Whole blood was incubated in presence of various compounds (1 μM and 5 μM) or with their diluent (control, DMSO 0.5%) for 5 min, then stimulated with opsonized zymosan (5 mg/ml) for 30 min at 37°C. Blood was then centrifuged and plasma was collected and added to 3.5 volumes of MeOH:CH3CN (1 : 1). Samples were processed for analysis by RP-HPLC for total 5-LO products quantification. Total 5-LO products measured represent the sum of LTB4, its trans isomers, 20-COOH and 20-OH-LTB4, and 5-hydroxyeicosatetraenoic acid. (b) Platelets were incubated for 5 min in presence of test compounds (1 μM and 3 μM) then biosynthesis of 12-HETE was initiated with the addition of 10 μM of calcium ionophore A23187. Reactions were stopped with the addition of two volumes of MeOH:MeCN (1 : 1 v/v). Samples were processed for analysis by RP-HPLC for 12-hydroxyeicosatetraenoic acid (12-HETE) quantification. ^∗Different from control as determined by one-way ANOVA with Dunnett's multiple comparison test (p < 0.05). Data are expressed as means ± SEM of at least 3 independent experiments.
Having identified compounds that inhibit the biosynthesis of lipid mediators generated via the 5-LO pathway, their ability to inhibit platelet 12-lipoxygenase (12-LO) was assessed to determine whether they show specificity.

With `C=C(C)CCOC(=O)/C=C/c1ccc(O)c(O)c1` [Compound 9], the “Inhibition of biosynthesis of 12-HETE in platelets” value (“Inhibition” below) by setting is: (1 μM compound) “significantly inhibited the biosynthesis of 12-HETE”; (3 μM compound) “near-complete inhibition”.
For the molecule `O=C(/C=C/c1ccc(O)c(O)c1)OCCc1ccccc1` [CAPE (2), Caffeic acid phenethyl ester, reference compound], the “Inhibition” value (1 μM compound) is recorded as “significantly inhibited the biosynthesis of 12-HETE” and the “Inhibition” value (3 μM compound) was “near-complete inhibition”.
The like results for `O=C(/C=C/c1ccc(O)c(O)c1)OCCc1ccc(F)cc1` [Compound 14] were, in that order, “significantly inhibited the biosynthesis of 12-HETE” and “near-complete inhibition”.
In the same order, the values of `COc1ccc(CCOC(=O)/C=C/c2ccc(O)c(O)c2)cc1` [Compound 16] are “failed to significantly affect the biosynthesis of 12-HETE” and “significant inhibition”.
Regarding `Cc1ccc(CCOC(=O)/C=C/c2ccc(O)c(O)c2)cc1` [Compound 15], the “Inhibition” value (1 μM compound) is “significantly inhibited the biosynthesis of 12-HETE” and the “Inhibition” value (3 μM compound) is listed as “near-complete inhibition”.
As for `O=C(/C=C/c1ccc(O)c(O)c1)OCCCc1ccccc1` [Compound 13], the “Inhibition” value was “significantly inhibited the biosynthesis of 12-HETE” (1 μM compound) and “near-complete inhibition” (3 μM compound).
Turning to `O=C(/C=C/c1ccc(O)c(O)c1)OCC(c1ccccc1)c1ccccc1` [Compound 19], the “Inhibition” value is, setting by setting: (1 μM compound) “failed to significantly affect the biosynthesis of 12-HETE”; (3 μM compound) “significant inhibition”.

The record behind these values is publication PMC5478869, “New Hydroxycinnamic Acid Esters as Novel 5-Lipoxygenase Inhibitors That Affect Leukotriene Biosynthesis” (Mediators of Inflammation, 2017).
